Test results reported in the NIST ThermoML archive (doi:10.1021/je0342062).

How the values were obtained:
[1] = 101.33 kPa, Liquid, Vibrating tube method
[2] = xn = mol fraction of the nth substance listed; conditions: 308.15 K, 101.32 kPa, Liquid, Vibrating tube method
[3] = excess molar enthalpy (molar enthalpy of mixing); xn = mol fraction of the nth substance listed; conditions: 308.15 K, 101.32 kPa, Liquid

OCc1ccccc1 [benzenemethanol]
[1]
Conditions | mass density [kg/m3]
298.15 K | 1041.46
308.15 K | 1033.7

OCc1ccccc1 [benzenemethanol] + OCCO
Conditions | excess molar enthalpy [kcal/mol] | mass density [kg/m3]
[2], x2 = 0.0395 | – | 1035.06
[2], x2 = 0.1313 | – | 1038.54
[2], x2 = 0.2622 | – | 1044.29
[2], x2 = 0.3189 | – | 1047.1
[2], x2 = 0.4645 | – | 1055.28
[2], x2 = 0.5057 | – | 1057.9
[2], x2 = 0.609 | – | 1065.04
[2], x2 = 0.6863 | – | 1071.03
[2], x2 = 0.7371 | – | 1075.32
[2], x2 = 0.8097 | – | 1081.99
[2], x2 = 0.879 | – | 1088.96
[2], x2 = 0.9638 | – | 1098.48
[3], x2 = 0.0719 | 0.0277 | –
[3], x2 = 0.1341 | 0.0409 | –
[3], x2 = 0.1886 | 0.0482 | –
[3], x2 = 0.2365 | 0.05 | –
[3], x2 = 0.3173 | 0.0512 | –
[3], x2 = 0.3826 | 0.0503 | –
[3], x2 = 0.4817 | 0.048 | –
[3], x2 = 0.5533 | 0.0457 | –
[3], x2 = 0.6502 | 0.0402 | –
[3], x2 = 0.7361 | 0.0331 | –
[3], x2 = 0.788 | 0.0282 | –
[3], x2 = 0.848 | 0.0206 | –
[3], x2 = 0.8815 | 0.017 | –
[3], x2 = 0.9177 | 0.0114 | –
[3], x2 = 0.937 | 0.00875 | –
[3], x2 = 0.9571 | 0.00602 | –
[3], x2 = 0.9781 | 0.00299 | –

OCc1ccccc1 [benzenemethanol] + OCCOCCO
Conditions | excess molar enthalpy [kcal/mol] | mass density [kg/m3]
[2], x2 = 0.0719 | – | 1038.79
[2], x2 = 0.1308 | – | 1042.93
[2], x2 = 0.2285 | – | 1049.76
[2], x2 = 0.3115 | – | 1055.63
[2], x2 = 0.4139 | – | 1062.92
[2], x2 = 0.5312 | – | 1071.36
[2], x2 = 0.6035 | – | 1076.6
[2], x2 = 0.7277 | – | 1085.7
[2], x2 = 0.8237 | – | 1092.77
[2], x2 = 0.8597 | – | 1095.43
[2], x2 = 0.8984 | – | 1098.29
[2], x2 = 0.9539 | – | 1102.43
[3], x2 = 0.0434 | -0.0338 | –
[3], x2 = 0.0833 | -0.0564 | –
[3], x2 = 0.1199 | -0.0717 | –
[3], x2 = 0.1537 | -0.0822 | –
[3], x2 = 0.2142 | -0.0945 | –
[3], x2 = 0.2665 | -0.101 | –
[3], x2 = 0.3528 | -0.105 | –
[3], x2 = 0.4208 | -0.107 | –
[3], x2 = 0.5216 | -0.109 | –
[3], x2 = 0.6206 | -0.107 | –
[3], x2 = 0.6856 | -0.102 | –
[3], x2 = 0.7658 | -0.0887 | –
[3], x2 = 0.8135 | -0.0791 | –
[3], x2 = 0.8674 | -0.0599 | –
[3], x2 = 0.897 | -0.0501 | –
[3], x2 = 0.929 | -0.0362 | –
[3], x2 = 0.9632 | -0.0197 | –

OCc1ccccc1 [benzenemethanol] + OCCOCCOCCO
Conditions | excess molar enthalpy [kcal/mol] | mass density [kg/m3]
[2], x2 = 0.0519 | – | 1039.48
[2], x2 = 0.174 | – | 1051.93
[2], x2 = 0.2411 | – | 1058.18
[2], x2 = 0.3373 | – | 1066.69
[2], x2 = 0.4327 | – | 1074.57
[2], x2 = 0.5295 | – | 1082.04
[2], x2 = 0.632 | – | 1089.43
[2], x2 = 0.7533 | – | 1097.6
[2], x2 = 0.8256 | – | 1102.12
[2], x2 = 0.8572 | – | 1104.07
[2], x2 = 0.9337 | – | 1108.5
[2], x2 = 0.961 | – | 1110.01
[3], x2 = 0.0313 | -0.0333 | –
[3], x2 = 0.0606 | -0.0576 | –
[3], x2 = 0.0883 | -0.0752 | –
[3], x2 = 0.1143 | -0.0883 | –
[3], x2 = 0.1623 | -0.104 | –
[3], x2 = 0.2047 | -0.111 | –
[3], x2 = 0.2792 | -0.118 | –
[3], x2 = 0.3405 | -0.12 | –
[3], x2 = 0.4366 | -0.121 | –
[3], x2 = 0.5376 | -0.121 | –
[3], x2 = 0.6078 | -0.12 | –
[3], x2 = 0.6992 | -0.109 | –
[3], x2 = 0.756 | -0.0968 | –
[3], x2 = 0.823 | -0.0791 | –
[3], x2 = 0.8613 | -0.0665 | –
[3], x2 = 0.9029 | -0.0502 | –
[3], x2 = 0.949 | -0.0239 | –

OCCOCCO [diethylene glycol]
[1]
Conditions | mass density [kg/m3]
298.15 K | 1112.38
308.15 K | 1105.88

OCCOCCOCCO [triethylene glycol]
[1]
Conditions | mass density [kg/m3]
298.15 K | 1119.78
308.15 K | 1112.61
